From the supplement of paper PMC11061612

Legend:
[1] = tested on: EMC-BAC-2 (Non-Small Cell Lung Carcinoma); assay: Bliss excess, mean over the matrix (fraction); higher = more synergy
In short: (§1)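 After 24 hours at 37°C and 5% CO2 in 1536-well plates, cells in DMEM/F12 or RPMI plus 10% FBS received two-drug dose matrices for 72 hours. Viability came from CellTiter-Glo 2.0 luminescence and was scaled as inhibition, anchored at 0 by vehicle wells and at 1 by blank wells. Combination Emax is taken as the second-highest inhibition in the matrix, and Bliss excess as the observed combination effect less EA + EB − EA·EB, with EA and EB the single-agent effects.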

[2] = tested on: H-EMC-SS (Chondrosarcoma); assay: as above
In short: as §1

[3] = tested on: EBC-1 (Squamous Cell Lung Carcinoma); assay: as above
In short: as §1

[4] = tested on: ASH-3 (Thyroid Gland Carcinoma); assay: as above
In short: as §1

[5] = tested on: LC4-1 (B-Lymphoblastic Leukemia); assay: as above
In short: as §1

[6] = tested on: PF-382 (T-Lymphoblastic Leukemia); assay: as above
In short: as §1

[7] = tested on: LOU-NH91 (Squamous Cell Lung Carcinoma); assay: as above
In short: as §1

[8] = tested on: NH-12 (Neuroblastoma); assay: as above
In short: as §1

[9] = tested on: BT-20 (Breast Carcinoma); assay: as above
In short: as §1

[10] = tested on: OVISE (Ovarian Carcinoma); assay: as above
In short: as §1

[11] = tested on: SCC-3 (B-Cell Non-Hodgkin's Lymphoma); assay: as above
In short: as §1

[12] = tested on: KYSE-50 (Esophageal Squamous Cell Carcinoma); assay: as above
In short: as §1

[13] = tested on: PFSK-1 (Other Solid Carcinomas); assay: as above
In short: as §1

[14] = tested on: OCUB-M (Breast Carcinoma); assay: combination Emax (second highest fraction inhibited in the dose matrix, 72 h); higher = more inhibition; extreme values may be limits of the assay
In short: as §1

[15] = tested on: GI-1 (Glioblastoma); assay: as above
In short: as §1

[16] = tested on: H-EMC-SS (Chondrosarcoma); assay: as above
In short: as §1

[17] = tested on: OCUM-1 (Gastric Carcinoma); assay: as above
In short: as §1

[18] = tested on: HuP-T3 (Pancreatic Carcinoma); assay: as above
In short: as §1

[19] = tested on: NCI-H513 (Other Solid Carcinomas); assay: as above
In short: as §1

[20] = tested on: NCI-H2347 (Lung Adenocarcinoma); assay: as above
In short: as §1
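For Bliss excess, mean over the matrix in this document: after 72 h of two-drug dosing.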

Row | SMILES | Bliss excess [1] | Bliss excess [2] | Bliss excess [3] | Bliss excess [4] | Bliss excess [5] | Bliss excess [6] | Bliss excess [7] | Bliss excess [8] | Bliss excess [9] | Bliss excess [10] | Bliss excess [11] | Bliss excess [12] | Bliss excess [13] | combination Emax [14] | combination Emax [15] | combination Emax [16] | combination Emax [17] | combination Emax [18] | combination Emax [19] | combination Emax [20]
1 | NC1(C(=O)N[C@@H](CCO)c2ccc(Cl)cc2)CCN(c2ncnc3[nH]ccc23)CC1 [Capivasertib] + Cn1cnc2c(F)c(Nc3ccc(Br)cc3Cl)c(C(=O)NOCCO)cc21 [Selumetinib] (first compound max 10 µM, 7x7, partner max 10 µM) | -0.0445 | 0.0635 | 0.0557 | 0.064 | 0.147 | 0.0266 | -0.0027 | 0.0644 | 0.0036 | -0.0063 | 0.0627 | -0.036 | 0.0717 | 0.998 | 0.622 | 0.797 | 0.937 | 0.464 | 0.409 | 0.423
2 | Cc1c2c(nn1C)CSCc1cc(n(C)n1)CSc1cc(c3ccccc3c1)OCCCc1c(C(=O)O)n(C)c3c-2c(Cl)ccc13 [AZD5991] + CC1(C)CCC(CN2CCN(c3ccc(C(=O)NS(=O)(=O)c4ccc(NCC5CCOCC5)c([N+](=O)[O-])c4)c(Oc4cnc5[nH]ccc5c4)c3)CC2)=C(c2ccc(Cl)cc2)C1 [Venetoclax] (first compound max 1 µM, 7x7, partner max 1 µM) | -0.0512 | 0.0646 | -0.0333 | -0.038 | 0.0705 | 0.0223 | -0.0589 | 0.139 | 0.0755 | 0.0031 | 0.017 | -0.0575 | 0.0721 | 0.996 | 0.954 | 0.515 | 0.0835 | 0.128 | 0.156 | 0.138
3 | C[C@@H](c1ccc2nccn2c1)n1nnc2ncc(-c3cnn(C)c3)nc21 [Savolitinib] + Cc1c2c(nn1C)CSCc1cc(n(C)n1)CSc1cc(c3ccccc3c1)OCCCc1c(C(=O)O)n(C)c3c-2c(Cl)ccc13 [AZD5991] (first compound max 1 µM, 7x7, partner max 1 µM) | -0.0767 | -0.0081 | 0.0076 | -0.0466 | -0.0133 | -0.0272 | -0.0328 | -0.0375 | -0.0135 | -0.0291 | 0.0239 | -0.0382 | 0.02 | 0.899 | 0.587 | 0.182 | 0.257 | 0.189 | 0.0607 | 0.107
4 | CN(C)CCCOc1ccc(-c2ccc3ncc4c(c3c2)n(C2CCOCC2)c(=O)n4C)cn1 [AZD0156] + O=C(c1cc(Cc2n[nH]c(=O)c3ccccc23)ccc1F)N1CCN(C(=O)C2CC2)CC1 [Olaparib] (first compound max 3 µM, partner max 3 µM) | 0.147 | 0.029 | 0.0413 | -0.0311 | 0.25 | 0.102 | -0.0153 | -0.0131 | 0.0209 | -0.0084 | 0.28 | 0.0152 | 0.0954 | 0.273 | 0.336 | 0.258 | 0.319 | 0.223 | 0.194 | 0.268
5 | NC1(C(=O)N[C@@H](CCO)c2ccc(Cl)cc2)CCN(c2ncnc3[nH]ccc23)CC1 [Capivasertib] + CCN(CCO)CCCOc1ccc2c(Nc3cc(CC(=O)Nc4cccc(F)c4)[nH]n3)ncnc2c1 [AZD2811] (first compound max 10 µM, 7x7, partner max 1 µM) | -0.0124 | -0.0105 | 0.0429 | -0.0147 | -0.0221 | -0.0497 | -0.0075 | -0.0439 | -0.0003 | 0.0015 | 0.0443 | 0.0278 | -0.027 | 1 | 0.754 | 0.488 | 0.683 | 0.249 | 0.19 | 0.231
6 | COc1cc2ncnc(Nc3ccc(F)c(Cl)c3)c2cc1OCCCN1CCOCC1 [Gefitinib] + CC(C)n1c(=O)n(C)c2cnc3cc(F)c(-c4ccc(OCCCN5CCCCC5)nc4)cc3c21 [AZD1390] (first compound max 10 µM, 7x7, partner max 0.3 µM) | -0.0706 | -0.0502 | -0.0434 | -0.0537 | -0.0408 | -0.0668 | -0.0195 | -0.0643 | -0.047 | -0.0739 | -0.0418 | -0.0546 | -0.0688 | 0.154 | 0.18 | 0.201 | 0.148 | 0.14 | 0.268 | 0.0611
7 | CC1(C)CCC(CN2CCN(c3ccc(C(=O)NS(=O)(=O)c4ccc(NCC5CCOCC5)c([N+](=O)[O-])c4)c(Oc4cnc5[nH]ccc5c4)c3)CC2)=C(c2ccc(Cl)cc2)C1 [Venetoclax] + Cc1cc2ncnn2cc1Nc1ncc2c(n1)n(C1CCOCC1)c(=O)n2C [AZD7648] (first compound max 1 µM, 7x7, partner max 10 µM) | -0.0596 | -0.0179 | 0.031 | -0.0732 | 0.0187 | -0.0134 | -0.0202 | -0.0072 | -0.0229 | -0.0464 | -0.0016 | 0.0065 | 0.0904 | 0.383 | 0.238 | 0.327 | 0.216 | 0.166 | 0.297 | 0.194
8 | CC1(C)CCC(CN2CCN(c3ccc(C(=O)NS(=O)(=O)c4ccc(NCC5CCOCC5)c([N+](=O)[O-])c4)c(Oc4cnc5[nH]ccc5c4)c3)CC2)=C(c2ccc(Cl)cc2)C1 [Venetoclax] + C[C@@H]1COCCN1C2=NC(=NC(=C2)C3(CC3)[S@](=N)(=O)C)C4=C5C=CNC5=NC=C4 [AZD6738] (first compound max 1 µM, 7x7, partner max 10 µM) | -0.0196 | -0.0416 | -0.0731 | -0.131 | 0.0467 | 0.0366 | -0.0023 | -0.0647 | -0.0511 | -0.0658 | 0.013 | -0.0492 | 0.0119 | 0.652 | 0.918 | 0.347 | 0.672 | 0.663 | 0.356 | 0.402
9 | Cc1c2c(nn1C)CSCc1cc(n(C)n1)CSc1cc(c3ccccc3c1)OCCCc1c(C(=O)O)n(C)c3c-2c(Cl)ccc13 [AZD5991] + C[C@@H]1COCCN1C2=NC(=NC(=C2)C3(CC3)[S@](=N)(=O)C)C4=C5C=CNC5=NC=C4 [AZD6738] (first compound max 1 µM, 7x7, partner max 10 µM) | 0.066 | 0.0187 | 0.039 | 0.0554 | 0.0101 | 0.063 | 0.0408 | 0.0031 | 0.0977 | -0.0118 | 0.0538 | -0.0348 | 0.0139 | 1 | 0.995 | 0.511 | 0.71 | 0.666 | 0.344 | 0.322
10 | Cc1c2c(nn1C)CSCc1cc(n(C)n1)CSc1cc(c3ccccc3c1)OCCCc1c(C(=O)O)n(C)c3c-2c(Cl)ccc13 [AZD5991] + C[C@@H](Nc1cc(F)cc(F)c1)c1cc(C(=O)N(C)C)cc2c(=O)cc(N3CCOCC3)oc12 [AZD8186] (first compound max 1 µM, 7x7, partner max 3 µM) | -0.0336 | -0.0325 | 0.0298 | 0.0027 | -0.057 | 0.005 | -0.0542 | 0.0311 | 0.0382 | 0.0069 | -0.0036 | 0.0319 | 0.0429 | 0.986 | 0.883 | 0.476 | 0.137 | 0.288 | 0.339 | 0.279
11 | CC1(C)CCC(CN2CCN(c3ccc(C(=O)NS(=O)(=O)c4ccc(NCC5CCOCC5)c([N+](=O)[O-])c4)c(Oc4cnc5[nH]ccc5c4)c3)CC2)=C(c2ccc(Cl)cc2)C1 [Venetoclax] + CN(C)CCCOc1ccc(-c2ccc3ncc4c(c3c2)n(C2CCOCC2)c(=O)n4C)cn1 [AZD0156] (first compound max 1 µM, 7x7, partner max 1 µM) | -0.0593 | -0.0387 | 0.0095 | -0.0193 | 0.056 | 0.0446 | -0.0307 | -0.0978 | -0.0163 | -0.01 | 0.0194 | -0.0399 | 0.068 | 0.749 | 0.234 | 0.206 | 0.284 | 0.145 | 0.21 | 0.191
12 | CN(CCO)CC[C@H](CSc1ccccc1)Nc1ccc(S(=O)(=O)NC(=O)c2ccc(N3CCC([C@@H](O)c4ccccc4-c4ccc(Cl)cc4)CC3)cc2)cc1S(=O)(=O)C(F)(F)F [AZD4320] + CCN(CCO)CCCOc1ccc2c(Nc3cc(CC(=O)Nc4cccc(F)c4)[nH]n3)ncnc2c1 [AZD2811] (first compound max 1 µM, 7x7, partner max 1 µM) | -0.0251 | 0.0545 | 0.0178 | 0.0577 | -0.0049 | 0.0518 | 0.0995 | -0.049 | 0.0212 | -0.0008 | -0.0063 | -0.0211 | -0.0176 | 0.874 | 0.771 | 0.521 | 0.924 | 0.128 | 0.13 | 0.476
13 | C[C@@H](c1ccc2nccn2c1)n1nnc2ncc(-c3cnn(C)c3)nc21 [Savolitinib] + CN(CC[C@H](CSC1=CC=CC=C1)NC2=C(C=C(C=C2)S(=O)(=O)NC(=O)C3=CC=C(C=C3)N4CCC(CC4)[C@H](C5=CC=CC=C5C6=CC=C(C=C6)Cl)O)S(=O)(=O)C(F)(F)F)CCO [AZD4320] (first compound max 1 µM, 7x7, partner max 1 µM) | -0.0794 |  | -0.0067 | -0.0078 |  | -0.0665 | -0.0642 | -0.0131 | -0.0084 | -0.0472 | -0.0083 | -0.011 | 0.0076 |  |  |  |  | 0.203 | 0.113 | 0.413
